Data taken from paper PMC8837603, “Lapcin, a potent dual topoisomerase I/II inhibitor discovered by soil metagenome guided total chemical synthesis” (Nature Communications, 2022).
pIC50: −log10 of the molar value.

Columns and labels:
HEK293 cells = assay: cells; format: cell-based, human; conditions: Homo sapiens, HEK293; normal cell; MTT, 48 h, 37 °C; DMEM + 10% FBS; 5, 000 cells/well; absorbance 570 nm; n = 3 biologically independent
Procedure: (§1) An MTT (2-(4,5-dimethylthiazol-2-yl)−2,5-diphenyltetrazolium bromide) assay was used to determine the cytotoxicity of lapcin towards diverse cancer cell lines. Lapcin was dissolved in DMSO to make a 3.2 mg/mL working solution. For each cancer line detailed in Supplementary Table 5, cells at 80-90% confluency were counted and seeded in 96-well, flat bottom microplates and incubated at 37 °C with a 5% CO2 atmosphere. Outer wells were unused to avoid edge effects. After adhering for 24 h, the medium was sterilely aspirated and replaced with 100 µL of fresh medium containing lapcin or a control compound serially diluted at concentrations ranging from 8,000 to 0.00382 ng/mL. After 48 h (37 °C, 5% CO2), the medium was carefully removed and 110 µL of freshly prepared MTT solution (10 µL of 5 mg/mL MTT in PBS (pH 7.4) premixed with 100 µL of complete medium) was added to each well. After 3 h at 37 °C with 5% CO2, 100 µL of solubilization solution (40% DMF, 16% SDS and 2% acetic acid in H2O) was added to each well and precipitated formazan crystals were allowed to dissolve for 4 h. The absorbance of each well was then measured at 570 nm using a Tecan microplate reader.

SW480 cells = assay: cells; format: cell-based, human; conditions: Homo sapiens, SW480; colon cancer; MTT, 48 h, 37 °C; DMEM + 10% FBS; 10,000 cells/well; absorbance 570 nm; n = 3 biologically independent
Procedure: as §1

HT29 cells = assay: cells; format: cell-based, human; conditions: Homo sapiens, HT-29; colon cancer; MTT, 48 h, 37 °C; DMEM + 10% FBS; 2,500 cells/well; absorbance 570 nm; n = 3 biologically independent
Procedure: as §1

A549 cells = assay: cells; format: cell-based, human; conditions: Homo sapiens, A549; lung cancer; MTT, 48 h, 37 °C; DMEM + 10% FBS + NEAA; 2,500 cells/well; absorbance 570 nm; n = 3 biologically independent
Procedure: as §1

NCI-H1299 cells = assay: cells; format: cell-based, human; conditions: Homo sapiens, NCI-H1299; lung cancer; MTT, 48 h, 37 °C; RPMI-1640 + 10% FBS; 2,500 cells/well; absorbance 570 nm; n = 3 biologically independent
Procedure: as §1

MCF 7 cells = assay: cells; format: cell-based, human; conditions: Homo sapiens, MCF7; breast cancer; MTT, 48 h, 37 °C; DMEM + 10% FBS; 8,000 cells/well; absorbance 570 nm; n = 3 biologically independent
Procedure: as §1

Hela (Cervical) cells = assay: cells; format: cell-based, human; conditions: Homo sapiens, HeLa; cervical cancer; MTT, 48 h, 37 °C; DMEM + 10% FBS; 2,500 cells/well; absorbance 570 nm; n = 3 biologically independent
Procedure: as §1

NCI-H226 cells = assay: cells; format: cell-based, human; conditions: Homo sapiens, NCI-H226; lung cancer; MTT, 48 h, 37 °C; RPMI-1640 + 10% FBS; 10,000 cells/well; absorbance 570 nm; n = 3 biologically independent
Procedure: as §1

HCT116 cells = assay: cells; format: cell-based, human; conditions: Homo sapiens, HCT-116; colon cancer; MTT, 48 h, 37 °C; DMEM + 10% FBS; 10,000 cells/well; absorbance 570 nm; n = 3 biologically independent
Procedure: as §1

U2OS (Bone) cells = assay: cells; format: cell-based, human; conditions: Homo sapiens, U2OS; bone cancer; MTT, 48 h, 37 °C; DMEM + 10% FBS + NEAA; 2,500 cells/well; absorbance 570 nm; n = 3 biologically independent
Procedure: as §1

HCC1806 cells = assay: cells; format: cell-based, human; conditions: Homo sapiens, HCC1806; breast cancer; MTT, 48 h, 37 °C; RPMI-1640 + 10% FBS; 2,500 cells/well; absorbance 570 nm; n = 3 biologically independent
Procedure: as §1

bacterial DNA gyrase = conditions: ref [9],[25]; cited from earlier work
Colo205 cells = assay: cells; format: cell-based, human; conditions: Homo sapiens, COLO 205; colon cancer; MTT, 48 h, 37 °C; RPMI-1640 + 10% FBS; 2,500 cells/well; absorbance 570 nm; n = 3 biologically independent
Procedure: as §1

Compound | pIC50 (HEK293 cells) | pIC50 (SW480 cells) | pIC50 (HT29 cells) | pIC50 (A549 cells) | pIC50 (NCI-H1299 cells) | pIC50 (MCF 7 cells) | pIC50 (Hela (Cervical) cells) | pIC50 (NCI-H226 cells) | pIC50 (HCT116 cells) | pIC50 (U2OS (Bone) cells) | pIC50 (HCC1806 cells) | inhibition of bacterial DNA gyrase (bacterial DNA gyrase) | pIC50 (Colo205 cells)
COc1cc([C@@H]2c3cc4c(cc3[C@@H](O[C@@H]3O[C@@H]5CO[C@@H](C)O[C@H]5[C@H](O)[C@H]3O)[C@H]3COC(=O)[C@H]23)OCO4)cc(OC)c1O [Etoposide] | 6.14 | 4.57 | 5.02 | 7.10 | 6.15 | 6.48 | 5.82 | 6.66 | < 4.26 | 5.74 | 5.48 |  | 
albicidin |  |  |  |  |  |  |  |  |  |  |  | inhibit the bacterial DNA gyrase | 
CC[C@@]1(O)C(=O)OCc2c1cc1n(c2=O)Cc2cc3ccccc3nc2-1 [Camptothecin] | 7.72 | 6.55 | 7.65 | 7.75 | 7.82 | < 4.53 | 7.20 | 7.55 | 6.89 | 6.76 | 7.71 |  | 7.02
